Reference: the supplement of paper PMC10307832

Columns and labels:
Assay in all cases: relative viability (nuclei count vs DMSO), 5 days (fraction); higher = more cells survive
[1] = compound: CC1=CC=C(C=C1)C(=O)CN2C3=C(CCCC3)SC2=N [Pifithrin_alpha] + O=C(c1cc(Cc2n[nH]c(=O)c3ccccc23)ccc1F)N1CCN(C(=O)C2CC2)CC1 [Olaparib] (partner 8 µM)
Summary of the method: (§1)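 Lung cancer cell lines were pin-tool dosed in 1536-well plates on the day after seeding, with either a lone drug or a fixed anchor-drug dose plus five library-drug doses (not always all listed) in √10 steps. Nuclei were counted on 4× images after 5 days. Relative viability is the ratio of treated-well to vehicle-well nuclei counts, with each value a median of duplicate plates.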

[2] = compound: CNC(=O)c1ccccc1Sc1ccc2c(/C=C/c3ccccn3)n[nH]c2c1 [Axitinib] + O=C(CCCCCCC(=O)Nc1ccccc1)NO [Vorinostat] (partner 1 µM)
Summary of the method: as §1

[3] = compound: CC1=CC=C(C=C1)C(=O)CN2C3=C(CCCC3)SC2=N [Pifithrin_alpha] + O=C(CCCCCCC(=O)Nc1ccccc1)NO [Vorinostat] (partner 1 µM)
Summary of the method: as §1

[4] = compound: CC1=CC=C(C=C1)C(=O)CN2C3=C(CCCC3)SC2=N [Pifithrin_alpha] + NC(=O)Nc1cc(-c2cccc(F)c2)sc1C(=O)N[C@H]1CCCNC1 [AZD7762] (partner 0.2 µM)
Summary of the method: as §1

Row | Cell Line | relative viability ([1]; first compound 1 µM) | relative viability ([1]; first compound 3.162 µM) | relative viability ([1]; first compound 10 µM) | relative viability ([1]; first compound 31.62 µM) | relative viability ([1]; first compound 100 µM) | relative viability ([2]; first compound 0.005 µM) | relative viability ([2]; first compound 0.01581 µM) | relative viability ([2]; first compound 0.05 µM) | relative viability ([2]; first compound 0.1581 µM) | relative viability ([2]; first compound 0.5 µM) | relative viability ([3]; first compound 1 µM) | relative viability ([3]; first compound 3.162 µM) | relative viability ([3]; first compound 10 µM) | relative viability ([3]; first compound 31.62 µM) | relative viability ([3]; first compound 100 µM) | relative viability ([4]; first compound 1 µM) | relative viability ([4]; first compound 3.162 µM) | relative viability ([4]; first compound 10 µM) | relative viability ([4]; first compound 31.62 µM) | relative viability ([4]; first compound 100 µM)
1 | BEN | 1.01 | 1.13 | 1.01 | 0.562 | 1.01 | 0.609 | 0.637 | 0.635 | 0.592 | 0.551 | 0.448 | 0.564 | 0.617 | 0.555 | 0.571 | 0.608 | 0.753 | 0.722 | 0.533 | 0.656
2 | 201T | 0.843 | 0.891 | 0.601 | 0.564 | 0.619 | 0.995 | 0.946 | 0.969 | 0.9 | 0.951 | 0.529 | 0.948 | 0.757 | 0.666 | 0.711 | 0.669 | 0.773 | 0.781 | 0.461 | 0.627
3 | NCI-H1666 | 0.72 | 0.673 | 0.657 | 0.641 | 0.648 | 1.07 | 1.14 | 1.02 | 1.09 | 1.11 | 0.96 | 0.962 | 0.723 | 0.771 | 0.793 | 0.767 | 0.717 | 0.677 | 0.581 | 0.491
4 | NCI-H1993 | 1.06 | 1.11 | 0.779 | 0.697 | 0.866 | 0.826 | 0.835 | 0.734 | 0.722 | 0.876 | 0.771 | 0.607 | 0.754 | 0.627 | 0.793 | 0.528 | 0.665 | 0.69 | 0.538 | 0.569
5 | CAL-12T | 0.706 | 0.631 | 0.535 | 0.46 | 0.574 | 0.869 | 0.72 | 0.686 | 0.737 | 1.12 | 0.699 | 0.73 | 0.706 |  | 0.651 | 0.548 | 0.658 | 0.62 | 0.401 | 0.476
6 | NCI-H460 | 0.456 | 0.343 | 0.257 |  | 0.21 | 0.758 | 0.772 | 0.734 | 0.732 | 0.914 | 0.797 | 0.397 | 0.182 | 0.0968 | 0.178 | 0.545 | 0.501 | 0.401 |  | 0.375
7 | NCI-H2170 | 0.657 | 0.593 | 0.541 | 0.309 | 0.551 | 0.898 | 0.85 | 0.896 | 0.739 | 0.799 | 0.791 | 0.873 | 0.837 | 0.681 | 0.842 | 0.899 | 0.91 | 0.733 | 0.613 | 0.783
8 | LC-2-ad | 0.756 | 0.739 | 0.683 | 0.444 | 0.555 | 0.67 | 0.722 | 0.736 | 0.713 | 0.685 | 0.692 | 0.719 | 0.689 | 0.465 | 0.521 | 0.969 | 0.849 | 0.705 | 0.6 | 0.642
9 | HCC-78 |  | 0.925 | 0.785 | 0.51 | 0.683 | 0.437 | 0.407 | 0.333 | 0.348 | 0.404 |  | 0.506 | 0.519 | 0.407 | 0.467 |  | 0.509 | 0.566 | 0.54 | 0.526
10 | NCI-H322M | 0.74 | 0.715 | 0.723 | 0.468 | 0.559 | 0.908 | 0.836 | 0.827 | 0.767 | 0.962 | 0.807 | 0.811 | 0.802 | 0.788 | 0.845 | 0.413 | 0.462 | 0.48 | 0.498 | 0.487
11 | NCI-H1651 | 0.184 | 0.191 | 0.173 | 0.143 | 0.194 | 0.563 | 0.542 | 0.537 | 0.548 | 0.59 | 0.148 | 0.553 | 0.476 | 0.533 | 0.563 | 0.399 | 0.461 | 0.454 | 0.361 | 0.512
12 | SW 900 | 0.646 | 0.57 | 0.56 | 0.378 | 0.487 | 0.51 |  | 0.434 | 0.472 | 0.829 | 0.527 | 0.277 | 0.432 | 0.36 | 0.377 | 0.567 | 0.497 | 0.622 | 0.41 | 0.424
13 | NCI-H1437 | 0.681 | 0.604 | 0.521 | 0.383 | 0.277 | 0.942 | 0.85 | 0.86 | 0.876 | 0.78 | 0.78 | 0.619 | 0.565 | 0.468 | 0.356 | 1.21 | 1.21 | 1.11 | 0.735 | 0.942
14 | NCI-H1355 | 0.653 | 0.52 | 0.413 | 0.442 | 0.345 | 0.661 | 0.575 | 0.69 | 0.604 | 0.542 | 0.606 | 0.483 | 0.429 | 0.376 | 0.479 | 0.857 | 0.633 | 0.511 | 0.463 | 0.514
15 | NCI-H2342 | 0.519 | 0.415 | 0.42 | 0.373 | 0.43 | 0.98 | 0.784 | 0.666 | 0.665 | 0.72 | 0.746 | 0.632 | 0.769 | 0.815 | 0.741 | 0.421 | 0.541 | 0.51 | 0.525 | 0.492
